Data on four compounds can be found in patent publication EP4790066A1, “GLP-1R/GIPR/GCGR TRIPLE AGONIST ANALOGUE AND USE THEREOF” (Shenzhen Bay Laboratory, priority 2023, dated 2025).

*1 amine or outer side, *2 acyl side, *3 side chain or, on linkers, in order; H or OH if unused. Where a SMILES comes first, the peptide text is derived from it. Bridges are numbered along the chain shown (N, C = ends). [ ]: non-standard residue; d: D form. X1 = O=C(O)CCCCCCCCCCCCCCCCCCC(=O)N[C@@H](CCCCNC(=O)COCCOCCNC(=O)COCCOCCNC(=O)CCC(=O)N(CCNC(=O)C[*:1])CCNC(=O)C[*:2])C(=O)O; Phe(2-F) = N[C@@H](Cc1ccccc1F)C(=O)O; αMeL = CC(C)C[C@](C)(N)C(=O)O; Iva = CC[C@](C)(N)C(=O)O; Dab = NCC[C@H](N)C(=O)O; Aib = CC(C)(N)C(=O)O

Holding throughout (type): cell-based
In test [1] the target is T1, GLP-1R (Homo sapiens, UniProt P43220).
T1 construct: expressed in transfected cells
Kind of test: CreLuc method (CRE-luciferase reporter), HEK293/pGM-CREB-L-Luc/GLP-1R pool. Particulars: 6 h incubation, read-out: EC50 (pM) for each receptor GLP-1R. The essentials: (§1)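 Stable HEK293 pools co-expressing each receptor with a CRE-luciferase reporter were plated at 20,000 cells/well in freestyle medium and treated with compound dilution series for 6 h at 37 °C. Luminescence was read with ONE-GLO to derive EC50.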

Test [2] concerns the target T2, GIPR (Homo sapiens, UniProt P48546).
T2 construct: expressed in transfected cells
T2 sequence (P48546 22-466): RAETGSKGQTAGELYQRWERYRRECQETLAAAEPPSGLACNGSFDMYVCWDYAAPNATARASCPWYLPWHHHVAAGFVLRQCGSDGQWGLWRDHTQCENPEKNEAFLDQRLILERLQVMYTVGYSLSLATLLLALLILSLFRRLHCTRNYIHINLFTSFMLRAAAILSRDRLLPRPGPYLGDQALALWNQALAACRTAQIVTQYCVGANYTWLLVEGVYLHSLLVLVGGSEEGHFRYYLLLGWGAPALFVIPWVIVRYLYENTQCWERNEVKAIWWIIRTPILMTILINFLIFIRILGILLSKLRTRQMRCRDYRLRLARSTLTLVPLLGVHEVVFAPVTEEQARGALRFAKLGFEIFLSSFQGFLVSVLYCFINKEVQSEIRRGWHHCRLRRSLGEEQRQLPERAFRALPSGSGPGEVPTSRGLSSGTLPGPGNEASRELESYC
The experiment in a line: CreLuc method (CRE-luciferase reporter), HEK293/pGM-CREB-L-Luc/GIPR pool. Conditions: 6 h incubation, read-out: EC50 (pM) for each receptor GIPR. Summed up: as §1

Test [3] deals with T3, GCGR (Homo sapiens, UniProt P47871).
T3 construct: expressed in transfected cells
The experiment in a line: CreLuc method (CRE-luciferase reporter), 293HEK/pGM-CREB-L-Luc/GCGR pool. Particulars: 6 h incubation, read-out: EC50 (pM) for each receptor GCGR. Summed up:
as §1
A general note: Reporter assays use an easily measured gene product as a stand-in for the process of interest.

T1 sequence (P43220 24-463, species assumed): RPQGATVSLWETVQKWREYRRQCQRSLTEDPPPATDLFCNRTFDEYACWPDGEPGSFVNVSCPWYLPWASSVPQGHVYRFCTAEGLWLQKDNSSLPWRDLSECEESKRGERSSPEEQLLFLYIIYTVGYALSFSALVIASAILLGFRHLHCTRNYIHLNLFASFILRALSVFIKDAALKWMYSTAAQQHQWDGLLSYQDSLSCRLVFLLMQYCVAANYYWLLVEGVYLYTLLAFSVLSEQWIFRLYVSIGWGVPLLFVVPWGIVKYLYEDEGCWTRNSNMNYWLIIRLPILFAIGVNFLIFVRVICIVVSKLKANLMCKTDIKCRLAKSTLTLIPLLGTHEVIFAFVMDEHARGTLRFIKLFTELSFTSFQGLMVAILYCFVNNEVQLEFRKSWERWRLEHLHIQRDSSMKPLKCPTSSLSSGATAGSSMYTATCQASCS
T3 sequence (P47871 26-477, species assumed): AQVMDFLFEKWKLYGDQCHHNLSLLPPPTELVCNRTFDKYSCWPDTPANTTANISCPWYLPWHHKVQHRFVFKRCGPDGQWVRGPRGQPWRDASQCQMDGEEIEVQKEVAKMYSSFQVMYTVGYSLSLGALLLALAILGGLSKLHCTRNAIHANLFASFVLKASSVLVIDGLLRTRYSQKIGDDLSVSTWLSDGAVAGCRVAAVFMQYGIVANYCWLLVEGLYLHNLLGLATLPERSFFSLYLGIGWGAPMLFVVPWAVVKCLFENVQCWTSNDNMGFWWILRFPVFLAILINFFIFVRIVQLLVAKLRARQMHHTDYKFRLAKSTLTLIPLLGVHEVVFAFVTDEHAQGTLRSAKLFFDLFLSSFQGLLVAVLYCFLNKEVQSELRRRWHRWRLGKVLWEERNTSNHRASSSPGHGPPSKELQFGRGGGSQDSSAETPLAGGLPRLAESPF

Broadly, the EC50 is the concentration that produces a half-maximal response. Consider `CC[C@H](C)[C@@H]1NC(=O)[C@H](Cc2ccccc2)NC(=O)[C@@H](NC(=O)C(C)(C)NC(=O)[C@H](CCC(N)=O)NC(=O)[C@H](C)NC(=O)[C@H](CCCCNC(C)=O)NC(=O)[C@H](CCCCN)NC(=O)[C@H](CC(=O)O)NC(=O)[C@H](CC(C)C)NC(=O)[C@](C)(CC)NC(=O)[C@@H](NC(=O)[C@H](CO)NC(=O)[C@H](Cc2ccc(O)cc2)NC(=O)[C@H](CC(=O)O)NC(=O)[C@H](CO)NC(=O)[C@@H](NC(=O)[C@H](Cc2ccccc2F)NC(=O)[C@@H](NC(=O)CNC(=O)[C@H](Cc2c[nH]cn2)NC(=O)C(C)(C)NC(=O)[C@@H](N)Cc2c[nH]cn2)[C@@H](C)O)[C@@H](C)O)[C@@H](C)CC)CSCC(=O)NCCN(C(=O)CCC(=O)NCCOCCOCC(=O)NCCOCCOCC(=O)NCCCC[C@H](NC(=O)CCCCCCCCCCCCCCCCCCC(=O)O)C(=O)O)CCNC(=O)CSC[C@@H](C(=O)NCC(=O)NCC(=O)N2CCC[C@H]2C(=O)N[C@@H](CO)C(=O)N[C@@H](CO)C(=O)NCC(=O)N[C@@H](C)C(=O)N2CCC[C@H]2C(=O)N2CCC[C@H]2C(=O)N2CCC[C@H]2C(=O)N[C@@H](CO)C(N)=O)NC(=O)[C@H](CC(C)C)NC(=O)[C@H](CC(C)C)NC(=O)[C@H](Cc2ccc(O)cc2)NC(=O)[C@H](CCC(=O)O)NC1=O` [TG66] (H-H[Aib]HGT[Phe(2-F)]TSDYSI[Iva]LDKK(Ac)AQ[Aib]CFIEYLLCGGPSSGAPPPS-NH2; linker 21-28 via X1), for which the values for the EC50 in test [1], in test [2] and in test [3] were 435 pM, 34.7 pM and 201 pM, respectively.

Turning to `CC[C@H](C)[C@@H]1NC(=O)[C@H](Cc2ccccc2)NC(=O)[C@@H](NC(=O)C(C)(C)NC(=O)[C@H](CCC(N)=O)NC(=O)[C@H](C)NC(=O)[C@H](CCCCNC(C)=O)NC(=O)[C@H](CCCCN)NC(=O)[C@H](CC(=O)O)NC(=O)[C@H](CC(C)C)NC(=O)[C@](C)(CC(C)C)NC(=O)[C@@H](NC(=O)[C@H](CO)NC(=O)[C@H](Cc2ccncc2)NC(=O)[C@H](CC(=O)O)NC(=O)[C@H](CO)NC(=O)[C@@H](NC(=O)[C@H](Cc2ccccc2)NC(=O)[C@@H](NC(=O)CNC(=O)[C@H](CCC(N)=O)NC(=O)C(C)(C)NC(=O)[C@@H](N)Cc2ccc(O)cc2)[C@@H](C)O)[C@@H](C)O)[C@@H](C)CC)CSCC(=O)NCCN(C(=O)CCC(=O)NCCOCCOCC(=O)NCCOCCOCC(=O)NCCCC[C@H](NC(=O)CCCCCCCCCCCCCCCCCCC(=O)O)C(=O)O)CCNC(=O)CSC[C@@H](C(=O)NCC(=O)NCC(=O)N2CCC[C@H]2C(=O)N[C@@H](CO)C(=O)N[C@@H](CO)C(=O)NCC(=O)N[C@@H](C)C(=O)N2CCC[C@H]2C(=O)N2CCC[C@H]2C(=O)N2CCC[C@H]2C(=O)N[C@@H](CO)C(N)=O)NC(=O)[C@H](CC(C)C)NC(=O)[C@H](CC(C)C)NC(=O)[C@H](Cc2ccc(O)cc2)NC(=O)[C@H](CCC(=O)O)NC1=O` [TG38], the EC50 in test [1] stood at 70.2 pM; in test [2], 14.5 pM; in test [3], 232 pM.

For the compound `CC[C@H](C)[C@@H]1NC(=O)[C@H](Cc2ccccc2)NC(=O)[C@@H](NC(=O)C(C)(C)NC(=O)[C@H](CCC(N)=O)NC(=O)[C@H](C)NC(=O)[C@H](CCCCNC(C)=O)NC(=O)[C@H](CCCCN)NC(=O)[C@H](CC(=O)O)NC(=O)[C@H](CC(C)C)NC(=O)[C@](C)(CC(C)C)NC(=O)[C@@H](NC(=O)[C@H](CO)NC(=O)[C@H](Cc2ccc(O)cc2)NC(=O)[C@H](CC(=O)O)NC(=O)[C@H](CO)NC(=O)[C@@H](NC(=O)[C@H](Cc2ccccc2)NC(=O)[C@@H](NC(=O)CNC(=O)[C@H](CCC(N)=O)NC(=O)[C@@H](CO)NC(=O)[C@@H](N)Cc2ccc(O)cc2)[C@@H](C)O)[C@@H](C)O)[C@@H](C)CC)CSCC(=O)NCCN(C(=O)CCC(=O)NCCOCCOCC(=O)NCCOCCOCC(=O)NCCCC[C@H](NC(=O)CCCCCCCCCCCCCCCCCCC(=O)O)C(=O)O)CCNC(=O)CSC[C@@H](C(=O)NCC(=O)NCC(=O)N2CCC[C@H]2C(=O)N[C@@H](CO)C(=O)N[C@@H](CO)C(=O)NCC(=O)N[C@@H](C)C(=O)N2CCC[C@H]2C(=O)N2CCC[C@H]2C(=O)N2CCC[C@H]2C(=O)N[C@@H](CO)C(N)=O)NC(=O)[C@H](CC(C)C)NC(=O)[C@H](CC(C)C)NC(=O)[C@H](Cc2ccc(O)cc2)NC(=O)[C@H](CCC(=O)O)NC1=O` [TG22] (H-Y[dS]QGTFTSDYSI[αMeL]LDKK(Ac)AQ[Aib]CFIEYLLCGGPSSGAPPPS-NH2; linker 21-28 via X1), the EC50 in test [1] amounted to 665 pM; in test [2], 18.3 pM; in test [3] it was 205 pM.

In the case of `CC[C@H](C)[C@@H]1NC(=O)[C@H](Cc2ccccc2)NC(=O)[C@@H](NC(=O)C(C)(C)NC(=O)[C@H](CCC(N)=O)NC(=O)[C@H](C)NC(=O)[C@H](CCCCNC(C)=O)NC(=O)[C@H](CCCCN)NC(=O)[C@H](CC(=O)O)NC(=O)[C@H](CC(C)C)NC(=O)[C@](C)(CC(C)C)NC(=O)[C@@H](NC(=O)[C@H](CO)NC(=O)[C@H](Cc2ccc(O)cc2)NC(=O)[C@H](CC(=O)O)NC(=O)[C@H](CO)NC(=O)[C@@H](NC(=O)[C@H](Cc2ccccc2)NC(=O)[C@@H](NC(=O)CNC(=O)[C@H](CCNC(C)=O)NC(=O)C(C)(C)NC(=O)[C@@H](N)Cc2ccc(O)cc2)[C@@H](C)O)[C@@H](C)O)[C@@H](C)CC)CSCC(=O)NCCN(C(=O)CCC(=O)NCCOCCOCC(=O)NCCOCCOCC(=O)NCCCC[C@H](NC(=O)CCCCCCCCCCCCCCCCCCC(=O)O)C(=O)O)CCNC(=O)CSC[C@@H](C(=O)NCC(=O)NCC(=O)N2CCC[C@H]2C(=O)N[C@@H](CO)C(=O)N[C@@H](CO)C(=O)NCC(=O)N[C@@H](C)C(=O)N2CCC[C@H]2C(=O)N2CCC[C@H]2C(=O)N2CCC[C@H]2C(=O)N[C@@H](CO)C(N)=O)NC(=O)[C@H](CC(C)C)NC(=O)[C@H](CC(C)C)NC(=O)[C@H](Cc2ccc(O)cc2)NC(=O)[C@H](CCC(=O)O)NC1=O` [TG41] (H-Y[Aib][Dab](Ac)GTFTSDYSI[αMeL]LDKK(Ac)AQ[Aib]CFIEYLLCGGPSSGAPPPS-NH2; linker 21-28 via X1), the EC50 in test [1] came out at 282 pM; in test [2], 19.6 pM; in test [3], 76.3 pM.
